Laboratory results published in patent US9113629B2, “4-amino-6-(4-substituted-phenyl)-picolinates and 6-amino-2-(4-substituted-phenyl)-pyrimidine-4-carboxylates and their use as herbicides” (DOW AGROSCIENCES LLC, priority 2013, dated 2015).
Where two headings read alike, the source gives them in different places.

Experiments:
[1] = test system: Key Broadleaf Weed and Crop Species; assay: Post-emergent Test II herbicidal activity (Table 5); type: in vivo; conditions: post-emergence, 336 h, post-emergent, 14 days after application; for pest or weed control at 70 g/ha: 70 g ai/ha; for pest or weed control at 140 g/ha: 140 g ai/ha
How it was run: (§1)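 Foliar application at 187 L/ha to greenhouse-grown seedlings (first or second true leaf); subirrigation thereafter. Visual 0–100% injury at 14 d relative to untreated plants.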

[2] = test system: Key Grass and Sedge Weeds as well as Grass Crops; assay: Post-emergent Test II herbicidal activity (Table 6); type: in vivo; conditions: post-emergence, 336 h; for pest or weed control at 70 g/ha: application rate 70 g ai/ha; for pest or weed control at 140 g/ha: application rate 140 g ai/ha
How it was run: as §1

[3] = ABUTH: velvetleaf (Abutilon theophrasti), read-out: Visual Growth Reduction (%) 14 Days After Application ABUTH
[4] = AMARE: redroot pigweed (Amaranthus retroflexus), read-out: Visual Growth Reduction (%) 14 Days After Application AMARE
[5] = BRSNN: oilseed-rape, canola (Brassica napus), read-out: Visual Growth Reduction (%) 14 Days After Application BRSNN
[6] = CHEAL: lambsquarters (Chenopodium album), read-out: Visual Growth Reduction (%) 14 Days After Application CHEAL
[7] = EPHHL: wild poinsettia (Euphorbia heterophylla), read-out: Visual Growth Reduction (%) 14 Days After Application EPHHL
[8] = HELAN: sunflower (Helianthus annuus), read-out: Visual Growth Reduction (%) 14 Days After Application HELAN
[9] = VIOTR: wild pansy (Viola tricolor), read-out: Visual Growth Reduction (%) 14 Days After Application VIOTR
[10] = CYPES: yellow nutsedge (Cyperus esculentus), read-out: Visual Growth Reduction (%) 14 Days After Application, CYPES
[11] = DIGSA: crabgrass (Digitaria sanguinalis), read-out: Visual Growth Reduction (%) 14 Days After Application, DIGSA
[12] = ECHCG: barnyardgrass (Echinochloa crus-galli), read-out: Visual Growth Reduction (%) 14 Days After Application, ECHCG
[13] = ORYSA: rice (Oryza sativa), read-out: Visual Growth Reduction (%) 14 Days After Application, ORYSA
[14] = SETFA: giant foxtail (Setaria faberi), read-out: Visual Growth Reduction (%) 14 Days After Application, SETFA
[15] = SORVU: grain sorghum (Sorghum vulgare), read-out: Visual Growth Reduction (%) 14 Days After Application, SORVU
[16] = TRZSS (wheat, Triticum aestivum), read-out: Visual Growth Reduction (%) 14 Days After Application, TRZSS
[17] = ZEAMX: maize, corn (Zea mays), read-out: Visual Growth Reduction (%) 14 Days After Application, ZEAMX

COC(=O)c1nc(-c2c(F)cc(I)c(F)c2F)cc(N)c1Cl [Compound 90]
176.2 to 178.7 °C: melting point
75 to 84%: pest or weed control at 140 g/ha [1, 8] | pest or weed control at 140 g/ha [2, 11]
30 to 44%: pest or weed control at 70 g/ha [1, 8] | pest or weed control at 70 g/ha [2, 13] | pest or weed control at 70 g/ha [2, 16]
0 to 29%: pest or weed control at 140 g/ha [2, 13]
95 to 100%: pest or weed control at 70 g/ha [1, 4] | pest or weed control at 140 g/ha [1, 4] | pest or weed control at 70 g/ha [1, 5] | pest or weed control at 140 g/ha [1, 5] | pest or weed control at 70 g/ha [1, 6] | pest or weed control at 140 g/ha [1, 6] | pest or weed control at 70 g/ha [1, 7] | pest or weed control at 140 g/ha [1, 7] | pest or weed control at 70 g/ha [1, 9] | pest or weed control at 140 g/ha [1, 9] | pest or weed control at 70 g/ha [2, 10] | pest or weed control at 140 g/ha [2, 10] | pest or weed control at 70 g/ha [2, 15] | pest or weed control at 140 g/ha [2, 15]
45 to 59%: pest or weed control at 140 g/ha [2, 16]
60 to 74%: pest or weed control at 70 g/ha [2, 17] | pest or weed control at 140 g/ha [2, 17]
85 to 94%: pest or weed control at 70 g/ha [1, 3] | pest or weed control at 140 g/ha [1, 3] | pest or weed control at 70 g/ha [2, 11] | pest or weed control at 70 g/ha [2, 12] | pest or weed control at 140 g/ha [2, 12] | pest or weed control at 70 g/ha [2, 14] | pest or weed control at 140 g/ha [2, 14]
